# Assay results: the COVID Moonshot data (paper PMC7615835)
# Where “and” joins values, the source holds several entries; their conditions need not be identical. Equal values may be shown once.
# Molecular target: SARS-CoV-2 Main Protease (SARS-CoV-2) (UniProt P0DTD1)
row,Structure (SMILES),IC50
1,CS(=O)(=O)c1ccc2c(NC(=O)C34CC(C3)Oc3ccc(Cl)cc34)cncc2c1,22.9 µM
2,O=C(Cc1cc(Cl)cc(Nc2ccccc2Cc2ccccc2)c1)Nc1cncc2ccccc12,1.97 µM
3,N#CC1(CS(=O)(=O)N2Cc3ccc(Cl)cc3C(C(=O)Nc3cncc4cc(Cl)ccc34)C2)CC1 (centres undefined),0.283 µM
4,O=C(NCCc1cccc(F)c1)C(c1cccnc1)N(C(=O)c1cocn1)c1ccc(-c2nnc3n2CCC3)cc1 (centres undefined),> 99.5 µM
5,O=C(Cc1cc(Cl)cc(Nc2cnc(Br)cn2)c1)Nc1cncc2ccccc12,2.07 µM
6,NC(=O)c1ccc2c(NC(=O)Cc3cccc(Cl)c3)cncc2c1,1.59 µM
7,N#Cc1ncc(F)cn1,> 99.5 µM
8,Cc1cc(Cl)cc(CC2CCN(C(=O)CCl)CC2)c1,3.57 µM
9,Cc1ccc(Cl)cc1N1CCN(c2cc(Cl)cc(CC(=O)Nc3cncc4ccccc34)c2)CC1,3.37 µM
10,CS(=O)(=O)c1ccc2c(NC(=O)C3CCS(=O)(=O)c4ccc(Cl)cc43)cncc2c1 (centres undefined),0.744 µM
11,COC1(c2cccc(Cl)c2)CCN(c2cncc3ccccc23)C1=O (centres undefined),0.467 µM
12,O=C(Cc1cccc(Cl)c1)N1CC(O)Cc2ccccc21 (centres undefined),> 99.5 µM
13,Cc1nc(Cl)c(Nc2cc(Cl)cc(CC(=O)Nc3cncc4ccccc34)c2)c(Cl)n1,1.64 µM
14,Cc1ccncc1N1CCN(c2cccc(Cl)c2)C1=O,81.7 µM
15,Cc1cc(C)n(-c2cc(Cl)cc(CC(=O)Nc3cncc4ccccc34)c2)c(=O)c1CN,2.41 µM
16,O=C(Cc1cccc(Cl)c1)Nc1noc2ccccc12,> 99.5 µM
17,O=C(CCl)N1CCCc2cc(NCc3ccc(F)cc3Cl)ccc21,19.3 µM
18,O=C(Nc1cncc2ccccc12)C1CCOc2c(OCc3ccccn3)cc(Cl)cc21 (centres undefined),6.43 µM
19,CC(C(N)=O)c1cc(Cl)cc(CC(=O)Nc2cncc3ccccc23)c1 (centres undefined),2.62 µM
20,O=C1CC(Oc2cc(Cl)cc(CC(=O)Nn3cnc4ccccc43)c2)N1 (centres undefined),82.1 µM
21,COc1ccc(N(C(=O)c2cnc[nH]2)C(C(=O)NCCc2cccc(F)c2)c2cccnc2)cc1 (centres undefined),93.7 µM
22,O=C(Cc1cc(Cl)cc(Nc2n[nH]c3ccc(Br)cc23)c1)Nc1cncc2ccccc12,1.83 µM
23,O=C(Cc1cc(Cl)cc(NCc2ccc(Br)cc2)c1)Nc1cncc2ccccc12,> 99.5 µM
24,Cc1nc2cc(C(=O)NNc3ccnc4cccnc34)ccc2o1,> 99.5 µM
25,CN(c1cc(Cl)cc(CC(=O)Nc2cncc3ccccc23)c1)[C@@H]1CCN(Cc2ccccc2)C1 (stereo in doubt),2.04 µM

row,Structure (SMILES),IC50
1,COCc1csc(-c2nnc(-c3sc(-c4ccccc4)nc3C)o2)c1,> 99.5 µM
2,COc1cccc2[nH]c(=O)cc(C(=O)N3CCN(c4cccc(Cl)c4)CC3)c12,4.68 µM
3,O=C(Cc1cc(Cl)cc(Oc2cccnc2)c1)Nc1cncc2ccccc12,1.14 µM and 1.57 µM and 1.17 µM
4,N#CC1(CS(=O)(=O)N2Cc3ccc(Cl)cc3C3(CCN(c4cncc5ccccc45)C3=O)C2)CCS(=O)(=O)CC1 (centres undefined),0.211 µM
5,Cc1ccc([N+](=O)[O-])c(Nc2cc(Cl)cc(CC(=O)Nc3cncc4ccccc34)c2)c1,2.26 µM
6,CC(C)=CCC[C@@](C)(O)[C@H]1CC[C@]2(C)[C@@H]1[C@H](O)C[C@@H]1[C@@]3(C)CC[C@H](O[C@@H]4O[C@H](CO)[C@@H](O)[C@H](O)[C@H]4O)C(C)(C)[C@@H]3CC[C@]12C (stereo in doubt),> 99.5 µM
7,N#CC1(CS(=O)(=O)N2Cc3ccc(Cl)cc3[C@@H](C(=O)Nc3cncc4ccccc34)C2)CCOCC1 (stereo in doubt),15.2 µM
8,Cc1cc(C(F)(F)F)nc2n[nH]c(NC(=O)C3CCOc4ccc(Cl)cc43)c12 (centres undefined),26 µM
9,O=C(NNC(=O)c1cccc(-n2nccc2C(F)(F)F)c1)OCc1ccccc1,> 99.5 µM
10,CCC(C)c1ccc(C(NCC(=O)Nc2ccc3[nH]c(=O)[nH]c3c2)c2cccs2)cc1 (centres undefined),> 99.5 µM
11,CC(C)(C)c1ccc(N(C(=O)c2cocn2)C(C(=O)NCCc2cccc(F)c2)c2cncnc2)cc1 (centres undefined),2.92 µM
12,O=C(Cc1cc(Cl)cc(Nc2cc(Cl)ccc2Br)c1)Nc1cncc2ccccc12,2.1 µM
13,O=C(Nc1cncc2cc(CN3CC4(CNC4)C3)ccc12)C1CCOc2ccc(Cl)cc21 (centres undefined),1.44 µM
14,COc1ccc(CNc2cc(Cl)cc(CC(=O)Nc3cncc4ccccc34)c2)c(OC)c1,3.37 µM
15,Cc1[nH]c2ccccc2c1/C=N/c1sc2c(c1C#N)CCC(C)C2 (centres undefined),> 99.5 µM
16,N#Cc1ccc(N(C(=O)c2ccco2)C(C(=O)NCCc2cccc(F)c2)c2cccnc2)cc1 (centres undefined),10.4 µM
17,O=C(NCCCO)c1ccc(N(C(=O)c2cocn2)C(C(=O)NCCc2cccc(F)c2)c2cccnc2)cc1 (centres undefined),> 99.5 µM
18,CC(C)(C)c1ccc(N(C(=O)c2scnc2Cl)C(C(=O)NCCc2cccc(F)c2)c2cccnc2)cc1 (centres undefined),> 99.5 µM
19,CC(=O)Nc1ccc(Nc2cc(Cl)cc(CC(=O)Nc3cncc4ccccc34)c2)c(C(F)(F)F)c1,2.09 µM
20,O=C(NCCc1cccc(F)c1)C(c1cccnc1)N(C(=O)c1cnc[nH]1)c1ccc2c(c1)COCC2 (centres undefined),> 99 µM
21,O=C(Cc1nnn2ccccc12)N(Cc1ccccc1)c1ccc(N2CCCCC2)cc1,> 99.5 µM
22,O=C(Cc1cc(Cl)cc(Nc2cc(Br)ccc2F)c1)Nc1cncc2ccccc12,1.9 µM
23,Cc1nc2ccc(NCc3cnc4ccccn34)cn2n1,> 99.5 µM
24,Cc1cnnn1-c1ccc(N(C(=O)c2cocn2)C(C(=O)NCCc2cccc(F)c2)c2cccnc2)cc1 (centres undefined),28.4 µM
